Source: patent US10519177B2, “Heterocyclic compounds and uses thereof” (Plexxikon Inc., priority 2013, dated 2019)

Tests used:
MV-4-11 cells = experiment: Oncology cell growth assay MV-4-11 (CellTiter Glo); type: cell-based; settings: Homo sapiens, MV4-11, 72 h; MV-4-11, 3d growth; read-out: Cell activity (IC50 μM) MV-4-11 3d-Growth
How it was run: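 MV-4-11 AML cells (MLL-AF4), 3000 per well, exposed to 8-point 1:3 compound titration from 10 μM top concentration (0.2% DMSO) for 72 h. Viability by CellTiter Glo luminescence, normalized to DMSO controls; pIC50 from four-parameter curve fit.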

BRD4-BD12 (1-477) = BRD4-BD12 (1-477) (Homo sapiens (Human), UniProt O60885); experiment: Alphascreen binding assay BRD4-BD12; settings: BRD4(1 2) H4; read-out: Biochemical activity (IC50 μM) BRD4(1 2) H4
How it was run: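 First, compound was preincubated 1 h at room temperature with the His-tagged BRD4 protein (BD1 44-164 or tandem BD12 1-477) and acetylated H4 peptide. Next, donor and acceptor beads were added at 7.5 μg/ml final. After 30 min, AlphaScreen emission was recorded.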

SMILES | IC50 (MV-4-11 cells) | IC50 (BRD4-BD12 (1-477))
CC[C@H](c1ccccn1)n1cc(I)c2ncc(-c3c(C)noc3C)cc21 [P-0956, 4-[3-iodo-1-[(1R)-1-(2-pyridyl)propyl]pyrrolo[3,2-b]pyridin-6-yl]-3,5-dimethyl-isoxazole] | < 1 µM | < 1 µM
COC(=O)c1ccc(-c2cn(Cc3cnc(C)s3)c3cc(-c4c(C)noc4C)cnc23)cc1 [P-0957, methyl 4-[6-(3,5-dimethylisoxazol-4-yl)-1-[(2-methylthiazol-5-yl)methyl]pyrrolo[3,2-b]pyridin-3-yl]benzoate] | < 1 µM | < 1 µM
Cc1ncc(Cn2cc(-c3ccc(C(=O)O)cc3)c3ncc(-c4c(C)noc4C)cc32)s1 [P-0958, 4-[6-(3,5-dimethylisoxazol-4-yl)-1-[(2-methylthiazol-5-yl)methyl]pyrrolo[3,2-b]pyridin-3-yl]benzoic acid] | < 1 µM | < 1 µM
CC[C@H](c1ccccn1)n1cc(-c2ccc(C(=O)OC)cc2)c2ncc(-c3c(C)noc3C)cc21 [P-0959, methyl 4-[6-(3,5-dimethylisoxazol-4-yl)-1-[(1R)-1-(2-pyridyl)propyl]pyrrolo[3,2-b]pyridin-3-yl]benzoate] | < 1 µM | < 1 µM
CC[C@H](c1ccccn1)n1cc(-c2ccc(C(=O)O)cc2)c2ncc(-c3c(C)noc3C)cc21 [P-0960, 4-[6-(3,5-dimethylisoxazol-4-yl)-1-[(1R)-1-(2-pyridyl)propyl]pyrrolo[3,2-b]pyridin-3-yl]benzoic acid] | < 1 µM | < 1 µM
CC[C@H](c1ccccn1)n1cc(-c2ccc(CC(=O)OC)cc2)c2ncc(-c3c(C)noc3C)cc21 [P-0961, methyl 2-[4-[6-(3,5-dimethylisoxazol-4-yl)-1-[(1R)-1-(2-pyridyl)propyl]pyrrolo[3,2-b]pyridin-3-yl]phenyl]acetate] | < 1 µM | < 1 µM
CC[C@H](c1ccccn1)n1cc(-c2ccc(CC(=O)O)cc2)c2ncc(-c3c(C)noc3C)cc21 [P-0962, 2-[4-[6-(3,5-dimethylisoxazol-4-yl)-1-[(1R)-1-(2-pyridyl)propyl]pyrrolo[3,2-b]pyridin-3-yl]phenyl]acetic acid] | < 1 µM | < 1 µM
CC[C@@H](c1ccccn1)n1cc(I)c2ncc(-c3c(C)noc3C)cc21 [P-0963, 4-[3-iodo-1-[(1S)-1-(2-pyridyl)propyl]pyrrolo[3,2-b]pyridin-6-yl]-3,5-dimethyl-isoxazole] | < 1 µM | < 1 µM
Cc1noc(C)c1-c1cnc2c(-c3ccc(C4(C(=O)O)CC4)cc3)cn(Cc3ccccn3)c2c1 [P-0964, 1-[4-[6-(3,5-dimethylisoxazol-4-yl)-1-(2-pyridylmethyl)pyrrolo[3,2-b]pyridin-3-yl]phenyl]cyclopropanecarboxylic acid] | < 1 µM | < 1 µM
COC(=O)Cc1ccc(-c2cn(Cc3ccccn3)c3cc(-c4c(C)noc4C)cnc23)cc1 [P-0965, methyl 2-[4-[6-(3,5-dimethylisoxazol-4-yl)-1-(2-pyridylmethyl)pyrrolo[3,2-b]pyridin-3-yl]phenyl]acetate] | < 1 µM | < 1 µM
CC[C@@H](c1ccccn1)n1cc(-c2ccc(C(=O)OC)cc2)c2ncc(-c3c(C)noc3C)cc21 [P-0966, methyl 4-[6-(3,5-dimethylisoxazol-4-yl)-1-[(1S)-1-(2-pyridyl)propyl]pyrrolo[3,2-b]pyridin-3-yl]benzoate] | < 1 µM | < 1 µM
CC[C@@H](c1ccccn1)n1cc(-c2ccc(C(=O)O)cc2)c2ncc(-c3c(C)noc3C)cc21 [P-0967, 4-[6-(3,5-dimethylisoxazol-4-yl)-1-[(1S)-1-(2-pyridyl)propyl]pyrrolo[3,2-b]pyridin-3-yl]benzoic acid] | < 1 µM | < 1 µM
CC[C@@H](c1ccccn1)n1cc(-c2ccc(C3(C(=O)OC)CC3)cc2)c2ncc(-c3c(C)noc3C)cc21 [P-0968, methyl 1-[4-[6-(3,5-dimethylisoxazol-4-yl)-1-[(1S)-1-(2-pyridyl)propyl]pyrrolo[3,2-b]pyridin-3-yl]phenyl]cyclopropanecarboxylate] | < 1 µM | < 1 µM
CC[C@@H](c1ccccn1)n1cc(-c2ccc(C3(C(=O)O)CC3)cc2)c2ncc(-c3c(C)noc3C)cc21 [P-0969, 1-[4-[6-(3,5-dimethylisoxazol-4-yl)-1-[(1S)-1-(2-pyridyl)propyl]pyrrolo[3,2-b]pyridin-3-yl]phenyl]cyclopropanecarboxylic acid] | < 1 µM | < 1 µM
CC[C@@H](c1ccccn1)n1cc(-c2ccc(C#N)cc2)c2ncc(-c3c(C)noc3C)cc21 [P-0970, 4-[6-(3,5-dimethylisoxazol-4-yl)-1-[(1S)-1-(2-pyridyl)propyl]pyrrolo[3,2-b]pyridin-3-yl]benzonitrile] | < 1 µM | < 1 µM
Cc1noc(C)c1-c1cnc2c(-c3cnn(CC(F)(F)F)c3)cn(CC3(C)CCOCC3)c2c1 [P-0971, 3,5-dimethyl-4-[1-[(4-methyltetrahydropyran-4-yl)methyl]-3-[1-(2,2,2-trifluoroethyl)pyrazol-4-yl]pyrrolo[3,2-b]pyridin-6-yl]isoxazole] | < 1 µM | < 1 µM
Cc1ccc(-c2cn(CC3(C)CCOCC3)c3cc(-c4c(C)noc4C)cnc23)cn1 [P-0972, 3,5-dimethyl-4-[3-(6-methyl-3-pyridyl)-1-[(4-methyltetrahydropyran-4-yl)methyl]pyrrolo[3,2-b]pyridin-6-yl]isoxazole] | < 1 µM | < 1 µM
Cc1noc(C)c1-c1cnc2c(-c3ccc(CC(=O)O)cc3)cn(Cc3ccccn3)c2c1 [P-0973, 2-[4-[6-(3,5-dimethylisoxazol-4-yl)-1-(2-pyridylmethyl)pyrrolo[3,2-b]pyridin-3-yl]phenyl]acetic acid] | < 1 µM | < 1 µM
COc1ccc(-c2cn([C@@H](C)c3ccccn3)c3cc(-c4c(C)noc4C)cnc23)cn1 [P-0975, 4-[3-(6-methoxy-3-pyridyl)-1-[(1S)-1-(2-pyridyl)ethyl]pyrrolo[3,2-b]pyridin-6-yl]-3,5-dimethyl-isoxazole] | < 1 µM | < 1 µM
CNC(=O)c1ccc(-c2cn([C@@H](C)c3ccccn3)c3cc(-c4c(C)noc4C)cnc23)cc1 [P-0977, 4-[6-(3,5-dimethylisoxazol-4-yl)-1-[(1S)-1-(2-pyridyl)ethyl]pyrrolo[3,2-b]pyridin-3-yl]-N-methyl-benzamide] | < 1 µM | < 1 µM
CNC(=O)c1ccc(-c2cn([C@@H](C)c3ccccn3)c3cc(-c4c(C)noc4C)cnc23)cn1 [P-0978, 5-[6-(3,5-dimethylisoxazol-4-yl)-1-[(1S)-1-(2-pyridyl)ethyl]pyrrolo[3,2-b]pyridin-3-yl]-N-methyl-pyridine-2-carboxamide] | < 1 µM | < 1 µM
Cc1noc(C)c1-c1cnc2c(-c3ccc(NS(C)(=O)=O)cc3)cn([C@@H](C)c3ccccn3)c2c1 [P-0979, N-[4-[6-(3,5-dimethylisoxazol-4-yl)-1-[(1S)-1-(2-pyridyl)ethyl]pyrrolo[3,2-b]pyridin-3-yl]phenyl]methanesulfonamide] | < 1 µM | < 1 µM
CNS(=O)(=O)c1cccc(-c2cn([C@@H](C)c3ccccn3)c3cc(-c4c(C)noc4C)cnc23)c1 [P-0980, 3-[6-(3,5-dimethylisoxazol-4-yl)-1-[(1S)-1-(2-pyridyl)ethyl]pyrrolo[3,2-b]pyridin-3-yl]-N-methyl-benzenesulfonamide] | < 1 µM | < 1 µM
Cc1noc(C)c1-c1cnc2c(-c3cccc(NS(C)(=O)=O)c3)cn([C@@H](C)c3ccccn3)c2c1 [P-0981, N-[3-[6-(3,5-dimethylisoxazol-4-yl)-1-[(1S)-1-(2-pyridyl)ethyl]pyrrolo[3,2-b]pyridin-3-yl]phenyl]methanesulfonamide] | < 1 µM | < 1 µM
CC(=O)Nc1ccc(-c2cn([C@@H](C)c3ccccn3)c3cc(-c4c(C)noc4C)cnc23)cc1 [P-0984, N-[4-[6-(3,5-dimethylisoxazol-4-yl)-1-[(1S)-1-(2-pyridyl)ethyl]pyrrolo[3,2-b]pyridin-3-yl]phenyl]acetamide] | < 1 µM | < 1 µM
Cc1noc(C)c1-c1cnc2c(I)cn([C@@H](c3ccccn3)C3CC3)c2c1 [P-0985, 4-[1-[(R)-cyclopropyl(2-pyridyl)methyl]-3-iodo-pyrrolo[3,2-b]pyridin-6-yl]-3,5-dimethyl-isoxazole] | < 1 µM | < 1 µM
CC[C@@H](c1ccccn1)n1cc(-c2ccc(CC(=O)O)cc2)c2ncc(-c3c(C)noc3C)cc21 [P-0986, 2-[4-[6-(3,5-dimethylisoxazol-4-yl)-1-[(1S)-1-(2-pyridyl)propyl]pyrrolo[3,2-b]pyridin-3-yl]phenyl]acetic acid] | < 1 µM | < 1 µM
Cc1noc(C)c1-c1cnc2c(-c3ccc(C(=O)O)cc3)cn([C@@H](c3ccccn3)C3CC3)c2c1 [P-0987, 4-[1-[(R)-cyclopropyl(2-pyridyl)methyl]-6-(3,5-dimethylisoxazol-4-yl)pyrrolo[3,2-b]pyridin-3-yl]benzoic acid] | < 1 µM | < 1 µM
Cc1noc(C)c1-c1cnc2c(I)cn([C@H](c3ccccn3)C3CC3)c2c1 [P-0988, 4-[1-[(S)-cyclopropyl(2-pyridyl)methyl]-3-iodo-pyrrolo[3,2-b]pyridin-6-yl]-3,5-dimethyl-isoxazole] | < 1 µM | < 1 µM
COC(=O)c1ccc(-c2cn([C@H](c3ccccn3)C3CC3)c3cc(-c4c(C)noc4C)cnc23)cc1 [P-0989, methyl 4-[1-[(S)-cyclopropyl(2-pyridyl)methyl]-6-(3,5-dimethylisoxazol-4-yl)pyrrolo[3,2-b]pyridin-3-yl]benzoate] | < 1 µM | < 1 µM
